{
  "source": "patent US6159733A",
  "about": "“Method for photoinactivating malignant cells” (priority 1996, dated 2000)",
  "key": {"[1]": {"system": "parasites", "conditions": "blood products; cited from earlier work"}, "[2]": {"system": "viruses", "conditions": "blood products; cited from earlier work"}, "[3]": {"system": "pluripotent stem cells (Ly-5.1 donor BM in Ly-5.2 mice)", "assay": "Bone marrow transplantation and chimerism assay", "type": "in vivo", "conditions": "for mice died two months after transplant: sub-lethally irradiated", "text": "(§1) Animals. C57B1/6 (Ly-5.2) and B6SJ-cd45 ^b pep 3^b /BOY J (Ly-5.1), were obtained from The Jackson Laboratories (Bar Harbor, Me.) and were maintained in the animal facility of the New York Blood Center. After gamma-irradiation, the animals were housed in microisolator cages and provided with autoclaved food and autoclaved acidified water (pH=3) ad libitum. Preparation of bone marrow cell suspensions--Ly-5.1 mice were used as the source of donor BM. Mice (8-10 weeks old) were killed and the BM was harvested by flushing the femoral shafts with Hank's balanced salt solution (HBSS), pH 7.4. The cell suspensions were centrifuged, washed once and the cells were finally resuspended in HBSS--10% vol/vol fetal bovine serum (FBS, Gemini Bioproducts Inc., Calabasas, Calif.).\n(§2) Photosensitization. Aliquots of a 1.87 mM Pc 4 (kindly provided by Dr. M. E. Kenney) stock solution in dimethyl sulfoxide were kept at -80° C. in autoclaved brown glass vials. Immediately prior to the photosensitization, Pc4 was thawed and diluted in dimethyl formamide to yield a 10 μM working solution. […] Pc 4 was used at 15 nM throughout the experiments.\n(§3) BM and cell line samples, were incubated with 15 nM Pc 4 for two hours at 37° C. at cell concentrations of 1.5×10^7 cells/mL. Aliquots of 1.5 mL were transferred to 24-well plates; separate plates were used for each sample.\n(§4) Photoinactivation. The light source used was a filtered xenon short arc lamp (Versa-Light, Model UV-R6G, Medic Lightech, Ltd., Haifa, Israel). It was used to deliver red light (λ 600-700 nm) to the sensitized cells. After a 20 minute warm up period of the instrument, the distance from the light source to the bottom of the 24-well plate was adjusted to obtain a fluence rate of 26.6 mW/cm^2, as measured with a radiometer (Model IL 1350, International Light, Newburyport, Mass.). Samples were placed under the light source and were stirred during the irradiations. Before and after the irradiations, samples were kept in the dark.\nBone marrow transplantation and chimerism assay. Two month old Ly-5.2 mice were used as recipients in the BM reconstitution assays. […] The irradiated recipient Ly-5.2 mice were divided into six groups. The mice in these groups received either HBSS, untreated control bone marrow, or Pc 4-sensitized BM that was photoirradiated with 0, 6, 12 or 18 J/cm^2, respectively. Each mouse received 250,000 donor BM cells.\nSix months after transplantation, peripheral blood was obtained by tail-vein puncture and 40 μL samples were aliquoted into tubes that contained the following antibody cocktails. The first tube contained 4 μL of phycoerythrin (PE) conjugated anti-Ly-5.1 antibody (CD45.1, kind gift from Dr. JoseCarlos Segovia) and 1 μL of fluorescein (FITC) conjugated anti-B220 antibody (B cells; Pharmingen, San Diego, Calif.), the second tube contained 4 μL anti-Ly-5.1^PE and 1 μL of anti-CD3^FITC (T cells; Pharmingen), and the third tube contained 4 μL anti-Ly-5.1^PE and 1 μL of anti-Gr-1^FITC (granulocytes; Pharmingen). Following a 20 minute incubation at room temperature, 2 mL of FACS Lysing Solution (Becton Dickinson (BD), San Jose, Calif.) was added to each sample followed by gentle mixing. After 10 minutes the samples were centrifuged and the pellets were resuspended in 3 mL PBS. After centrifugation, the washed pellets were resuspended in 2% vol/vol formalin--PBS pH 7.4 and the samples were analyzed by flow cytometry within 3 hours after staining."}, "[4]": {"system": "HL-60", "conditions": "15 nM Pc 4, 5×10^6 cells/mL, 8 J/cm^2; cited from earlier work"}, "[5]": {"assay": "Photosensitivity of pluripotent stem cells, cobblestone area forming cell (CAFC) assay", "type": "cell-based, murine", "conditions": "mouse, bone marrow stem cells, 15 nM", "text": "as §1, §2, §3\n(§5) In a second set of experiments, the cells were incubated with 15 nM Pc 4 at cell concentrations of 1.5×10^6 cells/mL. Prior to photoirradiation, the samples were centrifuged and the supernatants were aspirated and set aside. The cell concentrations were adjusted to 1.5×10^7 cells/mL by adding back an appropriate volume of the Pc 4 containing aspirates.\nas §4\n(§6) Cobblestone area forming cell assay. FBMD-1 stromal cells (gift from Dr. Ploemacher) were cultured at 33° C. in a humidified 5% CO2 -incubator in DMEM supplemented with 3.5 mM HEPES, 2 mM glutaMax (GibcoBRL), 10^-7 M sodium selenite, 10^-4 M β-mercaptoethanol, 10% vol/vol fetal calf serum (Gemini Bioproducts, Inc.), 5% vol/vol horse serum and 10^-5 M hydrocortisone 21-hemisuccinate (Breems, D. A., et al. Leukemia 8:1095 (1994); Van der Loo, J. C. M., et al. Blood 85:2598 (1995)). Prior to each experiment, FBMD-1 cells were harvested from log-phase cultures and fresh layers were prepared by seeding 1,000 cells into individual wells of 96-well flat bottom plates. These plates had been incubated overnight with 0.2% (wt/vol) gelatin to improve adherence of the stromal layer. The outer wells of the plates were filled with 100 μL 0.1 N NaOH to reduce infection.\n(§7) The FBDM-1 layers were overlaid with the bone marrow samples in a limiting dilution setup; the first wells receiving 180,000-300,000 cells (Breems, D. A., et al., supra). Ten dilutions 2-fold apart were used for each sample with 18 replicate wells per dilution. The cells were cultured at 33° C. in a humidified 5% CO2 -incubator. For each sample, the fraction of wells with at least one phase-dark hematopoietic clone of at least five cells (cobblestone area) was determined weekly and cobblestone area forming cell frequencies (CAFC) were calculated using the dedicated Poison statistics program LimDil (kindly provided by Dr. Jan Hendrikx). After counting, 100 μL medium was removed from the wells and replaced with 100 μL fresh medium.\n(§8) Statistics. […]"}, "[6]": {"system": "pluripotent stem cells", "assay": "Photosensitivity of pluripotent stem cells, cobblestone area forming cell (CAFC) assay", "type": "cell-based, murine", "text": "as §1, §2, §3, §5, §4, §6, §7, §8"}, "[7]": {"system": "V79", "conditions": "cited from earlier work"}},
  "note": "Entries after “also recorded” stand apart in the source; their conditions may differ. Like-named read-outs stand apart in the source and are kept apart here.",
  "data": [
    {"smiles": "CN(C)CCC[Si](C)(C)O[Si]1(O)n2c3c4ccccc4c2N=C2N=C(N=c4c5ccccc5c(n41)=NC1=NC(=N3)c3ccccc31)c1ccccc12", "note": "(stereo not shown) [Pc 4, hydroxysiloxy-dimethylpropyl-N-dimethyl silicon phthalocyanine]", "values": [
      {"measurement": "photoinactivation of parasites", "setting": "[1]", "value": "effectively photoinactivate"},
      {"measurement": "photoinactivation of viruses", "setting": "[2]", "value": "effectively photoinactivate"},
      {"measurement": "long term repopulating (LTR) ability / survival of the pluripotent stem cells", "setting": "[3]; 1.5×10^7 cells/mL, 18 J/cm^2", "value": "not affected by the photoinactivation procedure; also recorded: no adverse affect"},
      {"measurement": "mortality", "setting": "[3]; pilot, lethally irradiated (8.5 Gy), 70,000 untreated or treated donor BM cells", "value": "All mice that received 70,000 cells died within one month"},
      {"measurement": "Ly-5.1 chimerism in peripheral blood granulocytes, T cells and B cells", "setting": "[3]; pilot, lethally irradiated (8.5 Gy), 250,000 donor cells (untreated or treated 15 nM, 1.5×10^7 cells/mL, 18 J/cm2), after 4 months, most mice", "value": "> 70", "unit": "%"},
      {"measurement": "difference in chimerism levels from untreated BM group", "setting": "[3]; six months, 18 J/cm^2", "value": "not significant"},
      {"measurement": "chimerism level, granulocytes", "setting": "[3]; six months, 250,000 BM cells, 18 J/cm^2, untreated BM 0.49±0.01 (p=0.42)", "value": "0.38±0.08"},
      {"measurement": "chimerism level, B cells", "setting": "[3]; six months, 250,000 BM cells, 18 J/cm^2, untreated BM 0.50±0.12 (p=0.53)", "value": "0.39±0.11"},
      {"measurement": "chimerism level, T cells", "setting": "[3]; six months, 250,000 BM cells, 18 J/cm^2, untreated BM 0.72±0.07 (p=0.42)", "value": "0.60±0.12"},
      {"measurement": "mice died two months after transplant", "setting": "[3]; Pc 4, 0 J/cm^2", "value": "1/6"},
      {"measurement": "mice died two months after transplant", "setting": "[3]; Pc 4, 6 J/cm^2", "value": "1/6"},
      {"measurement": "mice died two months after transplant", "setting": "[3]; Pc 4, 18 J/cm^2", "value": "1/6"},
      {"measurement": "surviving fraction of human cells", "setting": "[4]", "value": "< 10^-5"},
      {"measurement": "viability at 672 h, 0.015 µM", "setting": "[5]; 1.5×10^6 cells/mL, 3 J/cm^2, two values, read-out: relative CAFC day 28 frequency", "value": 1.8, "unit": "%"},
      {"measurement": "viability at 672 h, 0.015 µM", "setting": "[5]; 1.5×10^7 cells/mL, 18 J/cm^2, two assays (p=0.69, p=0.78), read-out: relative CAFC frequency on day 28", "value": 91, "unit": "%"},
      {"measurement": "relative CAFC day 28 frequency", "setting": "[6]; 15 nM, 1.5×10^6 cells/mL, 3 J/cm^2, two values, 40320 min, 0.015 µM", "value": "< 0.014"},
      {"measurement": "CAFC frequency compared with untreated samples", "setting": "[6]; 15 nM, 1.5×10^7 cells/mL, 6 J/cm^2 (p=0.58)", "value": "not significantly lower"},
      {"measurement": "CAFC frequency compared with untreated samples", "setting": "[6]; 15 nM, 1.5×10^7 cells/mL, 12 J/cm^2 (p=0.40)", "value": "not significantly lower"},
      {"measurement": "CAFC frequency compared with untreated samples", "setting": "[6]; 15 nM, 1.5×10^7 cells/mL, 18 J/cm^2 (p=0.26)", "value": "not significantly lower"},
      {"measurement": "relative CAFC frequency on day 28", "setting": "[6]; 15 nM, 1.5×10^7 cells/mL, 18 J/cm^2, two assays (p=0.69, p=0.78), 40320 min, 0.015 µM", "value": 0.92},
      {"measurement": "effect on CAFC frequencies / pluripotent stem cells", "setting": "[6]; 15 nM, 1.5×10^7 cells/mL, after irradiation", "value": "not affected after irradiation; also recorded: not damaged"},
      {"measurement": "photoinactivation of the stem cells (CAFC)", "setting": "[6]; 1.5×10^6 cells/mL", "value": "approximately 2 log10"},
      {"measurement": "comparison with MC 540", "setting": "[6]; 1.5×10^7 cells/mL, vs Sieber (1987)", "value": "compared favorable to MC 540"},
      {"measurement": "sensitivity of c-kit^+,Sca-1^+ BM fraction to photoinactivation", "setting": "[6]; relative to other cell types", "value": "least sensitive"},
      {"measurement": "photoinactivation of V79 cells", "setting": "[7]", "value": "effectively photoinactivate"}
    ]}
  ]
}
